Counter-ions that a name gives are not always drawn.
Tests used:
[1] = tested on: Lysozyme (dimer formation with fructose); assay: Inhibitory activity on Maillard reaction: formation of lysozyme dimer (lysozyme + fructose, SDS-PAGE, densitometer); format: biochemical; settings: lysozyme 10 mg/ml, fructose 100 mM, 0.2M sodium phosphate buffer pH 7.4, 37° C., 3 days
Method: The inhibitory activity on Maillard reaction of the compounds of the present invention has confirmed by the screening system mentioned below. Lysozyme (10 mg/ml) and fructose (100 mM) were dissolved in 0.2M sodium phosphatic buffer solution (PH 7.4). The solution was incubated at a temperature of 37° C. for 3 days. A given volume of the reaction solution was separated using SDS-PAGE by the electrophoresis. After the electrophoresis, the SDS-PAGE was dyed by 0.2% Coomassie Brilliant Blue R-250 and then the dimer was determined by densitometer. The compounds of the present invention were added before incubation and the inhibitory activity of them against the formation of the dimer was examined in various concentrations and IC50 values were calculated.

[2] = tested on: lipid peroxide formation in rat liver homogenate; assay: Antioxiding effect: inhibitory activity against formation of peroxidized fat (lipid peroxide by TBA method); format: biochemical, Male Sprague Dawley rat; settings: 200 μM FeCl2, 10% rat liver homogenate, 37° C., 1 hr
Method: The antioxiding effect of the compounds of the present invention has confirmed by the screening system which examines inhibitory activity against formation of peroxidized fat mentioned below. Male Sprague Dawley rat was fasted for 12 hrs (overnight) before experiments, and was anesthetized with ether. Rat liver was perfused with ice-cold 0.9% NaCl via the portal vein, and promptly excised. 10% Liver homogenates were prepared in ice-cold 1.15% KCl. The reaction was started by adding 200 μM FeCl2 to the liver homogenate ([…]), and incubated at 37° C. for 1 hr. Lipid peroxide was measured by the TBA method according to the method of Ohkawa (See Analytical Biochemistry,95, 351 (1979)). The compounds of the present invention were added before incubation. And the efficacy thereof was examined and calculated IC50 values thereof.

[3] = tested on: Maillard reaction; settings: Brownlee et al., Science 232, 1629 (1986); cited from earlier work
[4] = tested on: advanced glycosylation end products in arterial wall connective tissue protein; settings: administered to diabetic rats; Brownlee et al., Science 232, 1629 (1986); cited from earlier work

Row | Structure (SMILES) | IC50 [1] | IC50 [2] | inhibition of Maillard reaction in vitro [3] | inhibition of diabetes-induced accumulation of advanced glycosylation end products in arterial wall connective tissue protein [4]
1 | Cc1c(C)c2c(c(C)c1O)CCC(C)(CCOC(=O)/C=C/c1ccc(NC(=N)N)cc1)O2 (stereo not drawn) [1 (h), 2-(6-hydroxy-2,5,7,8-tetramethyl-3,4-dihydro-2H-benzo[1,2-b]pyran-2-yl)ethyl4-quanidinocinnamate hydrochloride] | 53 µM | 0.9 µM | – | –
2 | Cc1c2c(c3ccccc3c1O)OC(C)(CCOC(=O)c1ccc(CNC(=N)N)cc1)CC2 (stereo not drawn) [1 (j), 2-(2,5-dimethyl-6-hydroxy-3,4-dihydro-2H-naphtho[1,2-b]pyran-2-yl)ethyl 4-quanidinomethylbenzoatehydrochloride] | 60 µM | 0.46 µM | – | –
3 | Cc1c(C)c2c(c(C)c1O)CCC(C)(CCOC(=O)c1ccc(N(C)C(=N)N)cc1)O2 (stereo not drawn) [1 (m), 2-(6-hydroxy-2,5,7,8-tetramethyl-3,4-dihydro-2H-benzo[1,2-b]pyran--2-yl)ethyl 4-(1-methylquanidino)-benzoate hydrochloride] | 440 µM | 0.6 µM | – | –
4 | Cc1c(C)c2c(c(C)c1O)CCC(C)(CCNC(=O)c1ccc(NC(=N)N)cc1)O2 (stereo not drawn) [Example 2, N-[2-(6-hydroxy-2,5,7,8-tetramethyl-3,4-dihydro-2H-benzo[1,2-b]pyran-2-yl)ethyl]-4-guanidinobenzamide hydrochloride] | 450 µM | 0.66 µM | – | –
5 | Cc1c(C)c2c(c(C)c1O)CCC(C)(CCNC(=N)NN)O2 (stereo not drawn) [Example 3, 1-amino-3-[2-(6-hydroxy-2,5,7,8-tetramethyl-3,4-dihydro-2H-benzo[1,2-b]pyran-2-yl)ethyl]guanidine hydroiodide] | 360 µM | 0.54 µM | – | –
6 | N=C(N)NN [aminoguanidine] | – | – | inhibits Maillard reaction in vitro | inhibits diabetes-induced accumulation of advanced glycosylation end products in arterial wall connective tissue protein

Source: patent US5508450A, “Benzopyran derivatives” (Ono Pharmaceutical Co., Ltd., priority 1989, dated 1996)
